Each structure is given as a SMILES string.

RP-LC retention time data for 33 compounds are collected here from the METLIN SMRT retention time set (Domingo-Almenara et al. 2019).

This data set in a line: gradient 5% acetonitrile 3 min, to 50% in 2 min, to 85% in 15 min, held 3 min, 100 µL/min. Conditions: column: Zorbax Extend-C18 2.1 x 50 mm; eluents: water / acetonitrile, 0.1% formic acid. In short, it runs like this: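 Retention times of pure standards were taken from adduct peaks that were selected by computer and manually inspected. Over 3 months, mixtures of ~100 molecules were run by HPLC–quadrupole time-of-flight mass spectrometry in positive and negative ionization mode. The Zorbax Extend-C18 column (2.1 × 50 mm, 1.8 μm) ran at 100 μL/min in water and acetonitrile, each containing 0.1% formic acid, with 40 μL dead volume and 900 μL dwell volume.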
`COCc1nc(C2CCN(C(=O)C3(c4ccccc4)CC3)C2)no1` (stereo not drawn): the RP-LC retention time came out at 750 s.

Take `CCc1ccc(NC(=O)N2CCCC(C)(C(=O)NCc3ccc(C)cc3)C2)cc1` (stereo not drawn): the RP-LC retention time was found to be 1040 s.

Regarding `CCOc1ccc(-c2nc(-c3ccc4c(c3)oc(=O)n4C)no2)cc1OCC`, the RP-LC retention time worked out at 1110 s.

`Cc1nc2cc3c(cc2n1CC(=O)NCc1ccc2c(c1)OCCCO2)OCCO3` gave an RP-LC retention time of 615 s.

`CCCOc1nc2c(c(=O)n(C)c(=O)n2C)n1C`: the RP-LC retention time worked out at 788 s.

Turning to `CCc1noc(NC(C)=O)c1-c1ccc(C)c(S(=O)(=O)Nc2cc(OC)cc(OC)c2)c1`, the RP-LC retention time turned out to be 854 s.

Consider `COCCNC(=O)c1ncoc1-c1ccccc1C(=O)N1CCCC1`, for which the RP-LC retention time was determined as 635 s.

As for `COc1ccc(Cn2c(=O)c3sccc3n(Cc3nc(-c4ccccc4Cl)no3)c2=O)cc1`, the RP-LC retention time came to 1090 s.

Consider `CC(C)c1ccc2oc3nc(N)c(C(=O)O)cc3c(=O)c2c1`, for which the RP-LC retention time stood at 891 s.

Take `O=C(NCc1cccc(C(F)(F)F)c1)c1cnc(-c2ccccc2)nc1-c1ccncc1`: the RP-LC retention time worked out at 934 s.

Turning to `O=C(CCC(=O)N1CC2CCCN2c2ccccc21)NCCN1CCOCC1` (stereo not drawn), the RP-LC retention time is 620 s.

Compound `CCOC(=O)CCC(=O)Nc1cccc2ccc(OC)nc12` yielded an RP-LC retention time of 904 s.

On to `COC(=O)c1ccc2c(=O)n(-c3cccc(F)c3)c(N3CCCCC3)nc2c1`, for which the RP-LC retention time was found to be 1150 s.

`CCN1CCN(C(=O)Cc2csc(-n3nc(C)c(Cl)c3C)n2)CC1` showed an RP-LC retention time of 691 s.

Compound `Cc1cccc(CNC(=O)c2ncn3c2C(=O)N(C2CC2)C(C)(C(=O)NC2CCCC2)C3)c1` (stereo not drawn) came in with an RP-LC retention time of 784 s.

As for `COc1cccc(N2CC(NC(=O)c3ccccc3C(F)(F)F)CC2=O)c1` (stereo not drawn), the RP-LC retention time was found to be 709 s.

On to `Cc1nc2nc(-c3ccccc3)nn2c(Sc2ccccc2N)c1C`, for which the RP-LC retention time was 710 s.

Consider `COc1ccc(OCC(=O)N2CCN(c3cc(C)n4cnnc4n3)CC2)cc1`, for which the RP-LC retention time was 593 s.

`COc1ccc(-c2noc(CCCC(=O)Nc3nc(-c4ccccc4)cs3)n2)cc1` gave an RP-LC retention time of 1060 s.

With `CCN1CCN(C(=O)c2nc(-c3ccnc(N4CCCCC4)c3)no2)CC1`, the RP-LC retention time stood at 568 s.

Compound `Cc1cc(NS(=O)(=O)c2ccc(Nc3nc(-c4ccc(C(C)C)cc4)cs3)cc2)no1` returned an RP-LC retention time of 1160 s.

With `CC1CN(C2CCCCC2)c2nc3c(c(=O)n(CCN4CCOCC4)c(=O)n3C)n2C1` (stereo not drawn), the RP-LC retention time came to 662 s.

Compound `O=C(CSc1ncc(-c2ccccc2)[nH]1)N1CCCc2ccccc21` showed an RP-LC retention time of 630 s.

With `Cc1nc(CCNC(=O)C2CCN(S(=O)(=O)c3ccc(F)c(F)c3)CC2)cs1`, the RP-LC retention time was 724 s.

`COC(=O)c1cnc2nc(C)ccc2c1Nc1cc(F)ccc1F` gave an RP-LC retention time of 669 s.

`COc1ccccc1NC(=O)N1CCN(C2=CC3=NC(C)CN3C=N2)CC1` (stereo not drawn): the RP-LC retention time turned out to be 603 s.

For the compound `COc1ccc(CN2C(=O)COC[C@H]2C(=O)NC2CC2)c(OC)c1`, the RP-LC retention time was determined as 643 s.

For `CCN(CC)C(=O)c1ccc(-c2nc3cc(NS(=O)(=O)c4ccccc4C)ccc3n2C)cc1`, the RP-LC retention time worked out at 694 s.

Take `CCN1C(=O)c2ccccc2Oc2ccc(C(=O)NCc3ccccc3OC)cc21`: the RP-LC retention time turned out to be 917 s.

In the case of `CCOC(=O)C1CCC(CNC(=O)Nc2ccc(-c3nc(-c4cc(C)ccc4C)co3)cc2)CC1` (stereo not drawn), the RP-LC retention time was 1260 s.

`COc1ccc(CN2CCOC2=O)cc1OC` yielded an RP-LC retention time of 649 s.

`COc1ccc(-c2nnc(-c3cccc(S(=O)(=O)N4CCOCC4)c3)o2)cc1` yielded an RP-LC retention time of 868 s.

In turn, `C=CCNc1nc(-c2ccc([N+](=O)[O-])cc2)nc2ccccc12` yielded an RP-LC retention time of 786 s.
